Experimental data from patent US7998985B2, “1,5-diphenyl-3-pyridinylamino-1,5-dihydropyrrolidin-2-one as CB1 receptor modulator” (Eli Lilly and Company, priority 2006, dated 2011).

Key:
human CB2 receptor [1] = molecular target: T1, human CB2 receptor (Homo sapiens, UniProt P34972); experiment: Antibody-capture SPA GTP-γ-35S binding, antagonist/inverse agonist mode, human CB2 (Sf9 membranes); format: biochemical; conditions: Human CB2 (Sf9 cells) membranes, Table 1
T1 construct: purchased Applied Cell Sciences, Gaithersburg, Md; PerkinElmer Life Sciences, Boston, Mass; host or cells: Sf9 insect cells (recombinant expression), membranes

human CB2 receptor [2] = molecular target: T1, human CB2 receptor; experiment: GTP-γ-35S binding, agonist mode, human CB2 (Sf9 membranes); format: biochemical
Male Sprague Dawley rats = experiment: cFos activation in rat brain, alone and with clozapine; format: in vivo
Text: Characterize Example 2 for its ability to activate gene expression and neurochemical efflux in cortical and subcortical regions and to interact with the prototypical atypical antipsychotic agent clozapine.
Methods: House Male Sprague Dawley rats (155-175 g) for 1 week prior to experimentation. Prepare Example 2 in a vehicle suspension of 1% Sodium carboxymethyl cellulose, 0.5% Sodium lauryl sulfate, 0.05% Antifoam, 0.085% Povidone and administer, to rats (e.g., male Sprague Dawley rats, 155-175 g) p.o. (a dose of 1 or 10 mg/kg). Control rats receive vehicle. Administer clozapine (Sigma) 1 hour later at a concentration of 8 mg/mL in a vehicle solution of 0.4% lactic acid at a dose of 8 mg/kg s.c. Sacrifice animals (n=7-8 per group) by decapitation 2 hours after administration of clozapine or vehicle for clozapine. Remove rapidly whole brains and immediately immerse in isopentane (2-methyl butane) over dry ice. Cut coronal sections through the prefrontal cortex (PFC), nucleus accumbens (NAc) and dorsolateral striatum (DL-Str) at 14 μm and perform Fos immunohistochemistry. Assess atypicality index (Robertson et al., 1994) using the following formula: Atypical Index=(NAcD−NAcV)−(DL-StrD−DL-StrV) where the average number of Fos-li neurons in NAc=nucleus accumbens, D=drug, V=vehicle, DL-Str=dorsolateral striatum. Analyze data using a one-way ANOVA followed by Newman-Keul's post hoc test (Graph Pad Prism 4.03). Set the level of significance at P<0.05.

male Sprague-Dawley rats = experiment: Microdialysis of monoamines and metabolites in prefrontal cortex; format: in vivo; conditions: rat prefrontal cortex microdialysate; doses as low as 1 mg/kg, p.o.
Procedure: Methods: Implant male Sprague-Dawley rats (260-300 g, Taconic Farms, Germantown, N.Y.) with a cannula (BAS, West Lafayette, Ind.) in the prefrontal cortex (PFC) 5-7 days before the experiment. Insert a concentric type probe with a 4 mm membrane tip extending below the cannula through the cannula about 16 hours before the experiment began and collect the microdialysate from prefrontal cortex and analyze for monoamines and their metabolites. Calculate all microdialysis data as percent change from dialysate basal concentrations with 100% defined as the average of the final three drug pre-injection values and each group having 5-6 rats. Analyze data with ANOVA and follow by a post-hoc Bonferroni test.

[3] = test system: alcohol-preferring (P) rats; experiment: 12-hour ethanol consumption in alcohol-preferring rats (P rats); format: in vivo, rat; conditions: female P rats, 15% (v/v) ethanol, continuous free access; Example 2 given p.o.
Text: Evaluate Example 2 for its ability to reduce consumption of ethanol in rats selectively bred for high oral ethanol intake (P rats). In addition, study the effects of Example 2 under conditions in which effects of the compound on motivation or the control of behavior by ethanol could be assessed.
Methods: Study the effects of Example 2 on female, alcohol-preferring (P) rats on alcohol consumption under a continuous free access paradigm. For comparative purposes test the standard opioid antagonist naltrexone. Monitor voluntary consumption of 15% (v/v) ethanol. Suspend Example 2 in vehicle (1% CMC, 0.5% SLS, 0.08% povidone, 0.05% Dow Corning antifoam 1510 US) and give p.o. 3 hours prior to the onset of the dark cycle. In addition, measure locomotor activity via infrared sensor.

[4] = test system: alcohol-preferring (P) rats; experiment: Progressive ratio responding maintained by ethanol; format: in vivo, rat; conditions: female P rats, progressive ratio schedule
Text: Assess the ability of Example 2 to reduce the motivational drive controlling ethanol intake.
Methods: Study female alcohol-preferring (P) rats under a progressive ratio schedule in which responding produces 15% ethanol (v/v). Under the progressive ratio schedule, the response requirement for ethanol delivery increases from 1 to 2 and then increments by 2 after 3 ethanol presentations.

[5] = test system: female Sprague-Dawley rats; experiment: Atypical antipsychotic (olanzapine) weight gain model; format: in vivo, rat; conditions: 0.3 and 1 mg/kg Example 2 plus olanzapine, days 15-28
Text: Methods: Maintain adult lean, female Sprague-Dawley rats ad libitum on normal rodent chow Purina LabDiet 5001 (12.3% fat) and water. […] Follow food intake, monitor body weight and change in fat mass over a two week treatment.

T1 sequence (P34972 whole entry): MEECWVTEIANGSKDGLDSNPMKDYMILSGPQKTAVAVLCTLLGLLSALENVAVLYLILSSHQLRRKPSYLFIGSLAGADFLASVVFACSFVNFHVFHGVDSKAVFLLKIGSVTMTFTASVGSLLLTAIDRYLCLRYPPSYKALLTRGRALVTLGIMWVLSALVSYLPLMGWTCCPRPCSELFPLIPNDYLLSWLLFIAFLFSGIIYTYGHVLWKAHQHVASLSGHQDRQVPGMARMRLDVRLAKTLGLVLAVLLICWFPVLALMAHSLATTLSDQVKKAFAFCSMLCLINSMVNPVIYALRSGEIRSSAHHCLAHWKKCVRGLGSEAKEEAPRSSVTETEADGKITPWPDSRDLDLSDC

CC(C)(N[C@@H]1C[C@H](c2cccc(OC(F)(F)F)c2)N(c2ccc(C(F)(F)F)cc2)C1=O)c1ccc(C(F)(F)F)nc1.Cc1ccc(S(=O)(=O)O)cc1 [Example 2, (3R,5R)-3-[1-methyl-1-(6-trifluoromethyl-pyridin-3-yl)-ethylamino]-1-(4-trifluoromethyl-phenyl)-5-(3-trifluoromethoxy-phenyl)-pyrrolidin-2-one, 4-methylbenzenesulfonate (1:1)]
Inverse Agonist Potency (Kb, nM) (human CB2 receptor [1]): No measurable activity | Agonist Potency EC50 (nM) (human CB2 receptor [2]): No measurable activity | Agonist Efficacy % (human CB2 receptor [2]; normalised to full agonist methanandamide): 0% | effect on clozapine-induced Fos reactivity (Male Sprague Dawley rats; 1 and 10 mg/kg p.o. given with clozapine 8 mg/kg s.c.): enhancing the effects of clozapine alone | cortical and subcortical Fos reactivity, compound alone (Male Sprague Dawley rats; Example 2 1 or 10 mg/kg p.o.): tend to or significantly enhance cortical and subcortical Fos reactivity | atypicality (ventral vs. dorsal striatal Fos impact) (Male Sprague Dawley rats; Example 2 added to clozapine): a neural signature of greater atypicality | cortical monoamine and metabolite levels (male Sprague-Dawley rats): Increase rat cortical monoamine and metabolite levels | consumption of ethanol [3]: decreased in a dose-dependent manner | ethanol-seeking behavior and ethanol consumed ([4]; 15% ethanol, dose-dependently): Reduce ethanol-seeking behavior and the consumption of ethanol consumed | reduction of breakpoint ([4]; F(4,20)=4.52, p=0.009): in a dose-dependent manner | fat free mass under olanzapine [5]: no changes in fat free mass | fat mass gain under olanzapine [5]: significant reduction in fat mass gain
